Measured values as given in ChEMBL document CHEMBL1240338, “BIBF 1120: triple angiokinase inhibitor with sustained receptor blockade and good antitumor efficacy” (Cancer Res, 2008).

Tests used:
HUVEC [1] = assay: Antiangiogenic activity in HUVEC assessed as inhibition of VEGF-induced cell proliferation by [3H]thymidine incorporation assay; assay type: functional, cell-based; conditions: Homo sapiens
Mus musculus [2] = assay: Toxicity in human FADU cells xenografted in NMRI nu/nu mouse assessed mortality at 100 mg/kg, po qd for 5 days; assay type: organism-based; design: dose 100 mg/kg, route oral; conditions: in vivo, 120 h
[3] = Antitumor activity against rat GS-9L cells implanted in syngeneic F344 Fischer rat assessed as inhibition of tumor growth at 25 mg/kg, po qd for 5 days relative to control
FaDu [4] = assay: Antitumor activity against human FADU cells xenografted in NMRI nu/nu mouse assessed as tumor growth at 25 mg/kg, po qd for 5 days relative to control
Calu-6 = assay: Antiangiogenic activity in human Calu6 assessed as inhibition of cell proliferation by [3H]thymidine incorporation assay in presence of fetal calf serum; assay type: functional, cell-based
FaDu [5] = assay: Antitumor activity against human FADU cells xenografted in NMRI nu/nu mouse assessed as reduction of tumor vessel density at 100 mg/kg, po qd for 5 days by Meca 32 immunohistochemistry image analysis relative to control; design: scale not given: the % may be the effect or the level left
CAKI-1 [6] = assay: Antitumor activity against human Caki1 cells xenografted in NMRI nu/nu mouse assessed as tumor growth at 10 mg/kg, po qd for 5 days relative to control
FaDu [7] = assay: Antitumor activity against human FADU cells xenografted in NMRI nu/nu mouse assessed as tumor growth at 10 mg/kg, po qd for 5 days relative to control
[8] = Antiangiogenic activity in HSMEC assessed as inhibition of VEGF-induced apoptosis by [3H]thymidine incorporation assay; assay type: functional, Homo sapiens
FaDu [9] = assay: Antitumor activity against human FADU cells xenografted in NMRI nu/nu mouse assessed as tumor growth at 50 mg/kg, po qd for 5 days relative to control
[10] = Antiangiogenic activity in HUASMC assessed as inhibition of PDGF BB-induced cell proliferation by [3H]thymidine incorporation assay; assay type: functional; conditions: Homo sapiens
FaDu [11] = assay: Antitumor activity against human FADU cells xenografted in NMRI nu/nu mouse assessed as tumor growth at 100 mg/kg, po qd for 5 days relative to control
HUVEC [12] = assay: Antiangiogenic activity in HUVEC assessed as inhibition of VEGF-induced apoptosis by [3H]thymidine incorporation assay; assay type: functional, cell-based; conditions: Homo sapiens
[13] = Antitumor activity against rat GS-9L cells implanted in syngeneic F344 Fischer rat assessed as inhibition of tumor growth at 10 mg/kg, po qd for 5 days relative to control
HeLa = assay: Antiangiogenic activity in human HeLa assessed as inhibition of cell proliferation by [3H]thymidine incorporation assay in presence of fetal calf serum; assay type: functional, cell-based
[14] = Antiangiogenic activity in HSMEC assessed as inhibition of VEGF-induced cell proliferation by [3H]thymidine incorporation assay; assay type: functional; conditions: Homo sapiens
HUVEC [15] = assay: Antiangiogenic activity in HUVEC assessed as inhibition of bFGF-induced cell proliferation by [3H]thymidine incorporation assay; assay type: functional, cell-based; conditions: Homo sapiens
FaDu [16] = assay: Antitumor activity against human FADU cells xenografted in NMRI nu/nu mouse assessed as reduction of PDGFR-beta-positive mural cells at 100 mg/kg, po qd for 5 days by PDGFR-beta immunohistochemistry image analysis relative to control; design: scale not given: the % may be the effect or the level left
FaDu [17] = assay: Antiangiogenic activity in human FADU assessed as inhibition of cell proliferation by [3H]thymidine incorporation assay in presence of fetal calf serum; assay type: functional, cell-based
[18] = Antitumor activity against rat GS-9L cells implanted in syngeneic F344 Fischer rat assessed as inhibition of tumor growth at 50 mg/kg, po qd for 5 days relative to control
[19] = Antiangiogenic activity in BRP assessed as inhibition of PDGF BB-induced cell proliferation by [3H]thymidine incorporation assay; assay type: functional; conditions: Bos taurus
FaDu [20] = assay: Antitumor activity against human FADU cells xenografted in NMRI nu/nu mouse assessed as inhibition of tumor growth at 50 mg/kg, po qd for 2 days relative to control; assay type: functional
[21] = Plasma concentration in NMRI nu/nu mouse at 50 mg/kg, po after 1 hr; assay type: ADME, organism-based; design: dose 50 mg/kg, route oral
[22] = Trough plasma concentration in NMRI nu/nu mouse at 50 mg/kg, po after 24 hrs; assay type: ADME, organism-based; design: dose 50 mg/kg, route oral
HUVEC [23] = assay: Induction of apoptosis in HUVEC at 50 nM by TUNEL assay (reference value: 2%); assay type: cell-based; conditions: human, 0.05 µM
CAKI-1 [24] = assay: Antitumor activity against human Caki1 cells xenografted in NMRI nu/nu mouse assessed as tumor growth at 100 mg/kg, po qd for 5 days relative to control
[25] = target: Cyclin-dependent kinase 2 (Homo sapiens, UniProt P24941); assay: Inhibition of human CDK2
CAKI-1 [26] = assay: Antitumor activity against human Caki1 cells xenografted in NMRI nu/nu mouse assessed as tumor growth at 50 mg/kg, po qd for 5 days relative to control
Mus musculus [27] = assay: Toxicity in human FADU cells xenografted in NMRI nu/nu mouse assessed weight loss at 100 mg/kg, po qd for 5 days; assay type: organism-based; design: dose 100 mg/kg, route oral; conditions: in vivo, 120 h

With `COC(=O)c1ccc2c(c1)NC(=O)/C2=C(\Nc1ccc(N(C)C(=O)CN2CCN(C)CC2)cc1)c1ccccc1` [NINTEDANIB] the EC50 (HUVEC [1]) was 9 nM, the Activity (Mus musculus [2]) was “Non-toxic” and the T/C [3] was 45%. For the same molecule, the T/C (FaDu [4]) was 46%, the EC50 (Calu-6) was greater than 3500 nM and the Activity (FaDu [5]) was 76%. For the same molecule, the T/C (CAKI-1 [6]) was 71%, the T/C (FaDu [7]) was 82% and the EC50 [8] was less than 10 nM. It also gave a T/C (FaDu [9]) of 27%, an EC50 [10] of 69 nM and a T/C (FaDu [11]) of 11%. For the same molecule, the EC50 (HUVEC [12]) was less than 10 nM, the T/C [13] was 74% and the EC50 (HeLa) was greater than 3500 nM. The EC50 [14] was 7 nM, the EC50 (HUVEC [15]) was 290 nM and the Activity (FaDu [16]) was 64%. The EC50 (FaDu [17]) was greater than 4500 nM, the T/C [18] was 30% and the EC50 [19] was 79 nM. The T/C (FaDu [20]) was 15%, the concentration at 1 h [21] was 1000 nM and the concentration at 24 h [22] was less than 8 nM. The Activity (HUVEC [23]) was 28%, the T/C (CAKI-1 [24]) was 16% and the IC50 [25] was greater than 10000 nM. For the same molecule, the T/C (CAKI-1 [26]) was 25% and the Activity (Mus musculus [27]) was “Non-toxic”.
